From ChEMBL document CHEMBL1135559, “Vacuolar-type H(+)-ATPase inhibitory activity of synthetic analogues of the concanamycins: is the hydrogen bond network involving the lactone carbonyl, the hemiacetal hydroxy group, and the C-19 hydroxy group essential for the biological activity of the concanamycins?” (Bioorg Med Chem Lett, 2002) come the findings set out here.

What all share (format): functional, cell-based
Common to all, as to details: Homo sapiens

Test [1] concerns A-431. As to the kind of experiment: Cell viability in A431 cells unstimulated with EGF was tested when incubated with concentration in the range of 1-10 uM after 48 h; Did not affect the viability.
Test [2] deals with A-431. Briefly: Cell viability in A431 cells when stimulated with EGF was tested when incubated with concentration in the range of 1-10 uM of the compound after 48 h; Cell death.
Test [3] concerns A-431. As to the kind of experiment: Cell viability in A431 cells when stimulated with EGF was tested when incubated with concentration 0.01 uM after 48 h; Cell death.
The subject of test [4] is A-431. Briefly: Cell viability in A431 cells unstimulated with EGF was tested when incubated with concentration up to 10 uM after 48 h; Did not affect the viability.
Test [5] has as its system A-431. Briefly: Cell viability in A431 cells unstimulated with EGF was tested when incubated with concentration at 2 uM after 48 h; Did not affect the viability.
Test [6] concerns A-431. Briefly: Cell viability in A431 cells when stimulated with EGF was tested when incubated with concentration 2 uM after 48 h; Cell death.
Test [7] deals with A-431. As to the kind of experiment: Cell viability in A431 cells when stimulated with EGF was tested when incubated with concentration up to 10 uM after 48 h; Did not affect the viability.

Each structure is given as a SMILES string.

Turning to `CC[C@H]1[C@@H](O)[C@H](C)C/C(C)=C/C=C/[C@H](OC)[C@@H]([C@@H](C)CO)OC(=O)/C(OC)=C/C(C)=C/[C@@H](C)[C@H]1O`, the Activity result in the test with A-431 [1] and in the test on A-431 [2] was “No effect” in each case.

As to `CC[C@@H]([C@@H](O)[C@H](C)C/C(C)=C/C=C/[C@H](OC)[C@H](O)[C@@H](C)COC(c1ccccc1)(c1ccccc1)c1ccc(OC)cc1)[C@H](O)[C@H](C)/C=C(C)/C=C(\OC)C(=O)OC`, the Activity entry in the test on A-431 [3] and in the test on A-431 [4] was “No effect” throughout.

Regarding `C/C=C/[C@H]1O[C@@](O)([C@@H](C)[C@H](O)[C@H](C)[C@H]2OC(=O)/C(OC)=C/C(C)=C/[C@@H](C)[C@@H](O)[C@@H](CC)[C@@H](O)[C@H](C)C/C(C)=C/C=C/[C@@H]2OC)C[C@@H](O)[C@@H]1C`, the Activity entry in the test on A-431 [5] and with A-431 [6] was “No effect” throughout.

For `CC[C@H]1[C@@H](O)[C@H](C)C/C(C)=C/C=C/[C@H](OC)[C@@H]([C@@H](C)COC(c2ccccc2)(c2ccccc2)c2ccc(OC)cc2)OC(=O)/C(OC)=C/C(C)=C/[C@@H](C)[C@H]1O`, the Activity result in the test on A-431 [7] and in the test on A-431 [4] was “No effect” in each case.
